Experimental findings from patent US10836795B2, “Dual functional novel peptide having cell permeability and bone tissue regeneration ability, and use thereof” (SEOUL NATIONAL UNIVERSITY R&DB FOUNDATION, priority 2016, dated 2020) are described below.

Where a SMILES comes first, the peptide text is derived from it.

Data set [1] deals with dental pulp stem cells. Nature of the data set: MTT assay, in-vitro cytotoxicity of synthetic peptides. Particulars: 50-2000 μM, 24, 48 and 72 hours. Format: cell-based. How it is done: A cell viability test was performed to evaluate the cytotoxicity of the peptides set forth in SEQ ID NOS: 1 to 6 synthesized in Example 2 above. For this purpose, dental pulp stem cells were seeded at a density of 9×10^3 cells per well into each well of a 96-well polystyrene plate in a Dulbecco's Modified Eagle's Medium (Gibco, USA) supplemented with 10% FBS (fetal bovine serum) and a 1% antibiotic-antimycotic solution (Thermo Fisher Scientific, USA), and then cultured for 24 hours. Each well was treated with various concentrations (50 μM, 100 μM, 200 μM, 400 μM, 500 μM, 800 μM, 1000 μM and 2000 μM) of the peptides set forth in SEQ ID NOS: 1 to 6. After 24 hours (1 day), 48 hours (2 days) and 72 hours (3 days), an MTT assay was performed to identify the cytotoxicity of the peptides. For the MTT assay, the medium was removed 24 hours, 48 hours, and 72 hours after treatment with peptide and each well was then treated with a mixture of 180 μl of a DMEM medium and 20 μl of a MTT solution, followed by further culturing for 1 hour. One hour later, the mixed solution was removed, each well was treated with 200 μl of dimethyl sulfoxide (DMSO) and the mixed solution was then transferred into a new 96-well plate and the cytotoxicity thereof was measured. All values were expressed as mean±standard deviation (SD) for triplicate experiments and the measured values are shown in FIG. 3.

In data set [2] the test system is dental pulp stem cells. Briefly: Cell permeability of FITC-labeled peptides by confocal microscopy. Format: cell-based. Particulars: for fluorescence expression at highest concentration: 1000 uM; for cell permeation ability / efficiency: 50-1000 μM. As to the method:
In order to identify the cell permeability of the peptides set forth in SEQ ID NOS: 1 to 6 synthesized in Example 2, fluorescein isothiocyanate (FITC) was attached to the N-terminus of each peptide. Dental pulp stem cells were seeded at a density of 3×10^4 cells into a 4-well chamber and cultured in DMEM medium for 24 hours for cell stabilization. 24 hours later, the cells were treated with the FITC-labeled peptide at various concentrations (50 μM, 100 μM, 200 μM, 500 μM, 1000 μM) for 30 minutes. The cells were treated with 100 ng/ml of copine 7 protein for 30 minutes in order to compare the cell permeability thereof with the peptide. Then, in order to compare the intracellular permeation behaviors of these peptides or the protein, each well was treated with 4% paraformaldehyde, fixed at room temperature for 10 minutes, treated with 0.5% Triton-X 100, and cultured at room temperature for 15 minutes. Then, the cells were blocked with a buffer solution (PBS) containing 3% bovine serum albumin (BSA) for 30 minutes. In the case of copine 7 protein, a CPNE7 primary antibody was diluted at a ratio of 1:100 in a buffer solution (PBS) containing 1% bovine serum albumin and reacted at 4° C. for 16 hours. A fluorescein isothiocyanate (FITC)-conjugated secondary antibody was diluted at a ratio of 1:200 and reacted at room temperature for 1 hour. Finally, the nuclei-staining dye (Hoechst 33342, blue) was treated at room temperature for 10 minutes and washed with a buffer solution (PBS), and the fluorescence intensity thereof was measured using a confocal scanning microscope (IX 70, Olympus Co, Tokyo, Japan) to determine the degree of expression. All values were expressed as mean±SD of the fluorescence intensities measured in three different areas, and were compared with the control group (no treatment, NT) (*P<0.05).

Data set [3] concerns skull of a New Zealand white rabbit. Briefly: Bone regeneration ability of a peptide-containing bone graft material in a rabbit skull defect. Format: in vivo. To be noted: 3 weeks after graft. How it is done: 20 mg and 40 mg of the peptide shown in SEQ ID NO: 4 were dissolved in 100 μL of purified water, and the solution was added to 0.1 g of a bone graft material, allowed to stand at 4° C. for 24 hours and lyophilized. The copine 7 protein was used as a control group in the same manner as above and was incorporated in amounts of 100 μg and 200 μg in 0.1 g of a bone graft material. A defect part with a diameter of 8 mm was formed in the skull of a New Zealand white rabbit (cuniculus) and implanted with 0.1 g of a bone graft material in each defect part. The periosteum and skin were double-sutured. The animal was sacrificed 3 weeks after graft, and the specimen was fixed in a formalin solution and embedded in tissues to obtain a specimen with a thickness of 20 um. The prepared specimen was stained with basic fuchsin and toluidine blue to prepare a non-decalcified sample. The sample was imaged with an optical microscope and analyzed histologically. All values were expressed as mean±SD (SD) of areas measured in three different samples and compared with copine 7 protein (*P<0.05).

The subject of data set [4] is osteocalcin in dental pulp stem cells (DPSCs). Nature of the data set: Bone differentiation ability: osteocalcin expression by immunofluorescence. In kind it is cell-based. How it is done: In order to identify the bone differentiation ability of the peptide set forth in SEQ ID NO: 4, which was determined to have the best cell penetration function in Example 4, and the copine 7 protein, expression difference of osteocalcin in dental pulp stem cells (DPSCs) was evaluated.
For this purpose, 1×10^5 DPSCs were suspended in 50 μl of a medium (Dulbecco's Modified Eagle's Medium, Gibco, USA) supplemented with 10% FBS (fetal bovine serum) and a 1% antibiotic-antimycotic solution (Thermo Fisher Scientific, USA) in a 24-well plate. The cells were cultured for 24 hours and then treated with the peptide set forth in SEQ ID NO: 4 at concentrations of 200 μM and 500 μM and the copine 7 protein at a concentration of 100 ng/ml, respectively, while replacing the medium with Differentiation basal medium-Osteogenic (Lonza, USA) supplemented with a supplement (hMSC Osteogenic SingleQuots, Lonza, USA) for 18 days. […] Finally, the cells were treated with the nuclei-staining dye (Hoechst 33342, blue) at room temperature for 10 minutes and washed with buffer (PBS), and the expression level of osteocalcin was determined with a confocal scanning microscope (IX 70, Olympus Co, Tokyo, Japan). All values were expressed as mean±SD of fluorescence intensity measured in three different areas and were compared with the control group (no treatment, NT) (*P<0.05).

The mark [5] stands for this setting: FITC-labeled peptide, 30 minutes, FIG. 4.

Turning to `CC(C)C[C@H](NC(=O)[C@@H](NC(=O)[C@@H](NC(=O)[C@@H](NC(=O)CNC(=O)[C@H](CO)NC(=O)[C@H](CC(N)=O)NC(=O)[C@H](CCCCN)NC(=O)[C@H](Cc1ccc(O)cc1)NC(=O)[C@@H](N)CO)C(C)C)C(C)C)C(C)C)C(N)=O` [SEQ ID NO: 5, SYKNSGVVVL] (H-SYKNSGVVVL-NH2), the “cytotoxicity (MTT assay)” value in the data set on dental pulp stem cells [1] was “intracellularly toxic”.
Still for that read-out and setting: for `CC(C)C[C@H](NC(=O)[C@@H](NC(=O)[C@@H](NC(=O)[C@@H](NC(=O)CNC(=O)[C@H](CO)NC(=O)[C@H](CC(N)=O)NC(=O)[C@H](CCCCN)NC(=O)[C@H](Cc1ccc(O)cc1)NC(=O)[C@H](CO)NC(=O)[C@H](CCCNC(=N)N)NC(=O)[C@H](CCCNC(=N)N)NC(=O)[C@H](CCCCN)NC(=O)[C@H](CCC(N)=O)NC(=O)[C@H](CCCCN)NC(=O)[C@H](Cc1ccc(O)cc1)NC(=O)[C@H](CCCCN)NC(=O)[C@@H]1CCCN1C(=O)[C@H](CC(N)=O)NC(=O)[C@@H](N)C(C)C)C(C)C)C(C)C)C(C)C)C(N)=O` [SEQ ID NO: 6] (H-VNPKYKQKRRSYKNSGVVVL-NH2) the value was “intracellularly toxic”.
For the compound “FEEGQAQWDC (Dual functional candidate peptide for cell penetration and bone tissue regeneration) [SEQ ID NO: 2, peptide from copine 7 protein, position 331-340]”, the “fluorescence expression at highest concentration” value in the data set on dental pulp stem cells [2] (setting [5]) is “weak fluorescence”.
For “FEEGQAQWDCVNPKYKQKRR (Dual functional candidate peptide for cell penetration and bone tissue regeneration) [SEQ ID NO: 3, peptide from copine 7 protein, position 331-350]”, the “cell permeation ability / efficiency” value in the data set with dental pulp stem cells [2] (setting [5]) is recorded as “relatively excellent cell permeation efficiency”.
In the case of “STTFEEMQKA (Dual functional candidate peptide for cell penetration and bone tissue regeneration) [SEQ ID NO: 1, peptide from copine 7 protein, position 321-330]”, in the data set on dental pulp stem cells [2] (setting [5]), the “fluorescence expression at highest concentration” value is on record as “no fluorescence expression” and the “cell permeation ability / efficiency” value is “no cell permeation ability”.
Regarding “VNPKYKQKRR (Dual functional peptide for cell penetration and bone tissue regeneration) [SEQ ID NO: 4, peptide from copine 7 protein, position 341-350]”, the “effect of regenerating new bone at the skull defect part” value in data set [3] (bone graft material with 20 mg or 40 mg peptide versus 100 μg or 200 μg copine 7 protein, FIG. 7A) was “excellent effect of regenerating new bone”. Further, in data set [3] (versus copine 7 protein, FIG. 7B), the “bone regeneration area (histomorphometric analysis)” value is listed as “significantly wider bone regeneration area than the copine 7 protein”. Also, the “fluorescence at 100 μM” value in the data set on dental pulp stem cells [2] (FITC-labeled peptide, 100 μM, 30 minutes, FIG. 4) is “had fluorescence”. Also, the “cell permeation ability / efficiency” value with dental pulp stem cells [2] (setting [5]) is “best cell permeation efficiency”. Moreover, the “cell permeability compared with copine 7 protein (confocal microscope)” value in the data set with dental pulp stem cells [2] (versus 100 ng/ml copine 7 protein, 30 minutes, FIG. 5A) is “better cell permeability than the copine 7 protein”. Further, in the data set on dental pulp stem cells [2] (versus 100 ng/ml copine 7 protein, FIG. 5B), the “quantified fluorescence intensity compared with copine 7 protein” value was “strong fluorescence intensity compared to the copine 7 protein”. Also, the “expression degree of osteocalcin as fluorescence intensity” value in data set [4] (200 μM and 500 μM peptide versus 100 ng/ml group, 18 days, FIG. 6) is recorded as “relatively stronger fluorescence intensity”. The “bone differentiation ability compared with copine 7 protein” value in data set [4] (DPSCs, 18 days in osteogenic medium) is listed as “superior to the copine 7 protein”.
